Laboratory results published in EP0840727B1, “3-HYDROXY-2(1H)-[…] AGENTS” (priority 1995, dated 1997).
Marks after values point to notes of the source that are not given here.

Legend:
[1] = Promoting excretion of 238Pu(IV) in mice by injected ligands; format: in vivo; details: for percent of injected ^238Pu ± SD at 24 h, tissues: liver / percent of injected ^238Pu ± SD at 24 h, tissues: skeleton / percent of injected ^238Pu ± SD at 24 h, tissues: soft tissue / percent of injected ^238Pu ± SD at 24 h, whole body / percent of injected ^238Pu at 24 h, excreta: feces and GI contents / percent of injected ^238Pu at 24 h, excreta: urine 0-24 h / percent of injected ^238Pu at 24 h, tissues: kidneys: ligand 30 µmol kg^-1 ip at 1 h after iv ^238Pu(IV) citrate, kill at 24 h; for percent of injected ^238Pu at 24 h, excreta: feces and GI contents / percent of injected ^238Pu at 24 h, excreta: urine 0-24 h / percent of injected ^238Pu at 24 h, tissues: kidneys: pooled samples
Excerpt: Animal studies were completed using methods detailed in Radiation Protection Dosimetry, in press, P. W. Durbin et al., "In Vivo Chelation of Am(III), Pu(IV), Np(V) and U(VI) in Mice by TREN-(Me-3,2-HOPO)"; Radiation Protection Dosimetry, 17, No. 1, 1989, p. 351, P. W. Durbin et al., "Removal of ^238Pu(IV) from Mice by Polycatechoylate, -Hydroxamate or -Hydroxypyridinonate Ligands"; Radiation Research, 99, 1984, p. 85, P. W. Durbin et al., "Specific Sequestering Agents for the Actinides ..."; Radiation Research, 99, 1984, p. 106, P. W. Durbin et al., "Removal of Pu and Am from Beagles and Mice ..."; Radiation Research, 81, 1980, p. 170, R. D. Lloyd et al., and P. W. Durbin et al., "Specific Sequestering Agents for the Actinides ...". The foregoing articles are hereby incorporated by reference.
Radionuclides used in the animal studies came from a variety of sources. However, they can be purchased commercially. The ^238Pu(IV) citrate and ^241Am(III) citrate solutions were prepared for animal injection by 8- to 10-fold dilution with 0.14M NaCl (pH 4) of concentrated stock solutions (0.08M sodium citrate buffer) that had been held in frozen storage at Lawrence Berkeley Laboratory (hereinafter LBL) for several years. [The ^238Pu(IV) was originally obtained from D. R. Atherton at the University of Utah Radiobiology Laboratory, Salt Lake City. The ^241Am(III) solution had been obtained many years earlier from the LBL Actinide Chemistry group.]
The novel chelating agents of the present invention and comparative compounds were tested for their effectiveness in promoting excretion ^238Pu(IV) in nice by injected ligands as follows. Mice, in groups of five, each received an intravenous injection of 1850 Bq ^238Pu(IV) in 0.2 mL of citrate buffer. One hour later, 30 µmol/kg of ligand was injected intraperitoneally in 0.5 mL of saline. The mice were killed 24 hours after the Pu injection, frozen, and dissected after partial thawing. The ^238Pu in skeleton, soft tissues, and separated excreta was determined by counting the ^234U L x-rays. Results of removal of ^238Pu(IV) from mice by injected ligands are summarized in Table 3, which also includes data for CaNa3-DTPA and other reference ligands and the Pu-injected controls. […] While the case of multidente 1,2-HOPO and catechoylamide chelating agents, octadentates are always better chelating agents than the corresponding hexadentates and tetradentates.

[2] = In vivo acute toxicity test of injected ligands in mice
Experimental: The test of acute toxicity of novel and comparative ligands was carried out as follows. Groups of five mice were each given a single i.p. injection of […] of ligand and a day for 10 days or given two i.p. injections of […] in 8 hours. The ligand was dissolved in 0.5 to 1.0 ml of saline at pH 7 to 8. After a period of observation, the mice were killed; selected tissues were removed and fixed for histopathological examination; and unusual findings at autopsy were recorded. […]

[3] = protocol I, 100 µmol kg^-1 x 10 daily i.p., study length 11 d
[4] = protocol I, 100 µmol kg^-1 x 10 daily i.p., study length 21 d
[5] = protocol II, 500 µmol kg^-1 x 2 in 8 h, study length 11 d

Compound	percent of injected ^238Pu ± SD at 24 h, tissues: liver [1]	percent of injected ^238Pu ± SD at 24 h, tissues: skeleton [1]	percent of injected ^238Pu ± SD at 24 h, tissues: soft tissue [1]	percent of injected ^238Pu ± SD at 24 h, whole body [1]	percent of injected ^238Pu at 24 h, excreta: feces and GI contents [1]	percent of injected ^238Pu at 24 h, excreta: urine 0-24 h [1]	percent of injected ^238Pu at 24 h, tissues: kidneys [1]	also measured
Cn1ccc(C(=O)NCCN(CCCCN(CCNC(=O)c2ccn(C)c(=O)c2O)CCNC(=O)c2ccn(C)c(=O)c2O)CCNC(=O)c2ccn(C)c(=O)c2O)c(O)c1=O [H(4,2)-Me-3,2-HOPO, N,N,N',N'-tetrakis[(3-hydroxy-1-methyl-2-oxo-1,2-dihydropyridin-4-yl)carboxamido-ethyl]-butylenediamine]	29 ± 6.1% of injected ^238Pu	12 ± 2.9% of injected ^238Pu	1.9 ± 1.0% of injected ^238Pu	46 ± 8.5% of injected ^238Pu	26.8% of injected ^238Pu	28% of injected ^238Pu	1.8% of injected ^238Pu	–
Cn1ccc(C(=O)NCCCCCNC(=O)c2ccn(C)c(=O)c2O)c(O)c1=O [5-LI-Me-3,2-HOPO, 1,5-bis[(3-hydroxy-1-methyl-2-oxo-1,2-dihydropyridin-4-yl)carboxamido]pentane]	3.1 ± 0.8^d percent of injected ^238Pu	10 ± 1.2% of injected ^238Pu	1.9 ± 0.5% of injected ^238Pu	16 ± 1.9^d percent of injected ^238Pu	67.6% of injected ^238Pu	17.5% of injected ^238Pu	0.3% of injected ^238Pu	toxicity (in words) ([2]; even at the relatively high dosage of 2x500 µmol/kg in 8 hours): low toxicity; no. of survivors [2, 3]: 5; percent control mean + SD: body weight [2, 3]: 102 ± 5 percent control; percent control mean + SD: kidney weight [2, 3]: 109 ± 14 percent control; percent control mean + SD: plasma urea N [2, 3]: 89 ± 1 percent control; no. of survivors [2, 4]: 5; percent control mean + SD: body weight [2, 4]: 102 ± 5 percent control; percent control mean + SD: kidney weight [2, 4]: 100 ± 4 percent control; percent control mean + SD: plasma urea N [2, 4]: 101 ± 2 percent control; no. of survivors [2, 5]: 5; percent control mean + SD: body weight [2, 5]: 99 ± 3 percent control; percent control mean + SD: kidney weight [2, 5]: 109 ± 9 percent control; percent control mean + SD: plasma urea N [2, 5]: 98 ± 18 percent control; Pu removal (in words) ([1]; injected ligands, 30 µmol/kg intraperitoneally one hour after ^238Pu(IV)): as effective or more effective than the hexadentate and octadentate chelating agents
Cn1ccc(C(=O)NCCN(CCCN(CCNC(=O)c2ccn(C)c(=O)c2O)CCNC(=O)c2ccn(C)c(=O)c2O)CCNC(=O)c2ccn(C)c(=O)c2O)c(O)c1=O [H(3,2)-Me-3,2-HOPO, N,N,N',N'-tetrakis[(3-hydroxy-1-methyl-2-oxo-1,2-dihydropyridin-4-yl)carboxamido-ethyl]-propylenediamine]	14 ± 6.1% of injected ^238Pu	10 ± 2.0% of injected ^238Pu	2.4 ± 0.3^d percent of injected ^238Pu	28 ± 4.8% of injected ^238Pu	52.1% of injected ^238Pu	19.5% of injected ^238Pu	1.2% of injected ^238Pu	–
Cn1ccc(C(=O)NCCN(CCNC(=O)c2ccn(C)c(=O)c2O)CCN(CC(=O)O)CC(=O)O)c(O)c1=O [TREN-bis(Me-3,2-HOPO)-bis acetic acid]	6.6 ± 2.2^d percent of injected ^238Pu	20 ± 1.7% of injected ^238Pu	2.7 ± 0.8% of injected ^238Pu	30 ± 3.6% of injected ^238Pu	34.6% of injected ^238Pu	8.7% of injected ^238Pu	0.5% of injected ^238Pu	–
